The values that follow come from the Kinase Knowledgebase extract (Sharma et al. 2016).

The experiment has as its target EGFR (human) (UniProt P00533). Conditions: a431.

Chain of EGFR (human) (P00533 whole entry, looked up): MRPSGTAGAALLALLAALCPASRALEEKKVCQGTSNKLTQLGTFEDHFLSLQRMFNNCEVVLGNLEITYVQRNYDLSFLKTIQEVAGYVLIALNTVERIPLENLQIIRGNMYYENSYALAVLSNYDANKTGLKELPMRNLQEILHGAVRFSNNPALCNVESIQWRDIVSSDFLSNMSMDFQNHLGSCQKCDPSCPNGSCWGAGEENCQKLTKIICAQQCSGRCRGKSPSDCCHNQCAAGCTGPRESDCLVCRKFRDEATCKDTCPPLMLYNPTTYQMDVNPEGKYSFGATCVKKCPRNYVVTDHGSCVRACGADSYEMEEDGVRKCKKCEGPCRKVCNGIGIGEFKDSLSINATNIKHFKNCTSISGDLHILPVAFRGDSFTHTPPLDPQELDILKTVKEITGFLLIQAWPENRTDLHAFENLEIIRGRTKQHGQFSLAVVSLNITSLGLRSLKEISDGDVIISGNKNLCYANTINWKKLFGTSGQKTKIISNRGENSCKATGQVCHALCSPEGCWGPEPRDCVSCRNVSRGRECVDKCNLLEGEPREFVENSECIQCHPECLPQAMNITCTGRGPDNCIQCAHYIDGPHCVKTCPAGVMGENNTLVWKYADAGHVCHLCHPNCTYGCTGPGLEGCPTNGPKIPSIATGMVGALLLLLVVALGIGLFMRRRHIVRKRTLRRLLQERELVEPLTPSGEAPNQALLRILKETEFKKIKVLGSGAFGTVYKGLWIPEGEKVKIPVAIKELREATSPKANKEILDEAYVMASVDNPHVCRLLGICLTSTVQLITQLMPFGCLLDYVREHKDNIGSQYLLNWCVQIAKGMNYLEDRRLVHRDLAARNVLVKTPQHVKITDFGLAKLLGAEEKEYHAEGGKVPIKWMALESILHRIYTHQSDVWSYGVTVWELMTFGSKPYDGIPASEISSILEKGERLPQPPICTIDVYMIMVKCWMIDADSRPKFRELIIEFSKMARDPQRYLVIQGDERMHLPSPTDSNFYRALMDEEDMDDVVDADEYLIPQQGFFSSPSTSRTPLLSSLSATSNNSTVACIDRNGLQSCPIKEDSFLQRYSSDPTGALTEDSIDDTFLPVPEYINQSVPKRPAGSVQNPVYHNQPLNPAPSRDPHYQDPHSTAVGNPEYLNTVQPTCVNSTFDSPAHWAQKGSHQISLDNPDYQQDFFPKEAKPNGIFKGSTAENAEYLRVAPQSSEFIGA

The molecule `C=C(CN(C)C)C(=O)N1CCC(Oc2cc3c(Nc4ccc(F)c(Cl)c4F)ncnc3cc2OC)CC1` returned an IC50 of 2.7 nM. This lies in the single-digit nanomolar range.
Consider `CNC(=O)/C=C/C(=O)N1CC(Oc2cc3c(Nc4ccc(F)c(Cl)c4F)ncnc3cc2OC)C1`, for which the IC50 is 41 nM.
`COc1cc2ncnc(Nc3ccc(F)c(Cl)c3F)c2cc1OC1CCN(C(=O)/C=C\CN(C)C)CC1` gave an IC50 of 6 nM.
`CC#CC(=O)N1CC[C@H](Oc2cc3c(Nc4ccc(F)c(Cl)c4F)ncnc3cc2OC)C1` registered an IC50 of 37 nM. Against the preceding molecule, the IC50 is about 6.2-fold higher.
In the case of `COc1cc2ncnc(Nc3ccc(F)c(Cl)c3F)c2cc1OC1CN(C(=O)/C=C/Cl)C1` it was 44 nM.
As for `C=CC(=O)N1CCC(Oc2cc3c(Nc4ccc(Br)c(F)c4)ncnc3cc2OC)CC1`, the half-maximal inhibitory concentration (IC50) is 7 nM.
In the case of `COc1cc2ncnc(Nc3ccc(F)c(Cl)c3F)c2cc1O[C@H]1CCN(C(=O)/C=C/CN(C)C)C1` it was 4 nM; in that of `C=C(CN1CCCCC1)C(=O)N1CC(Oc2cc3c(Nc4cccc(Cl)c4F)ncnc3cc2OC)C1`, 2.4 nM.
Molecule `COc1cc2ncnc(Nc3ccc(F)c(Cl)c3F)c2cc1O[C@H]1CCN(C(=O)C#CCCN2CCN(C)CC2)C1` came in with an IC50 of 53 nM.
`C=CC(=O)N1CCC(Oc2cc3c(Nc4ccc(O)c(Cl)c4)ncnc3cc2OC)CC1`: the IC50 amounted to 109 nM.
Regarding `C=CC(=O)N1CCC(Oc2cc3c(Nc4cccc(C#N)c4)ncnc3cc2OC)CC1`, the IC50 stood at 3.7 nM. Compared with the last molecule, the IC50 is about 29-fold lower.
In the case of `COC(=O)/C=C\C(=O)N1CC(Oc2cc3c(Nc4cccc(Cl)c4F)ncnc3cc2OC)C1` it was 1 nM; in that of `C=C(CN1CCCCC1)C(=O)N1CC(Oc2cc3c(Nc4ccc(F)c(Cl)c4F)ncnc3cc2OC)C1`, 9.1 nM; in that of `COc1cc2ncnc(Nc3ccc(Cl)c(Cl)c3F)c2cc1OC1CCN(C(=O)/C=C/CN(C)C)CC1`, 165 nM.
Consider `C=C(C)C(=O)N1CC(Oc2cc3c(Nc4ccc(F)c(Cl)c4F)ncnc3cc2OC)C1`, for which the IC50 was 29 nM.
Regarding `C=CC(=O)N1CC(Oc2cc3c(Nc4cccc(C#N)c4)ncnc3cc2OC)C1`, the IC50 is 17 nM. This IC50 is about 1.7-fold lower than that of the molecule before.
The molecule `CCN(CC)C/C=C/C(=O)N1CC[C@H](Oc2cc3c(Nc4ccc(F)c(Cl)c4F)ncnc3cc2OC)C1` gave an IC50 of 28 nM.
`C=CC(=O)N1CCC(Oc2cc3c(Nc4ccc(OCc5cccc(F)c5)c(Cl)c4)ncnc3cc2OC)CC1`: the IC50 came out at 10 nM. Compared with the last molecule, the IC50 is about 2.8-fold lower.
In the case of `C=CC(=O)N1CCC(Oc2cc3c(Nc4ccc(C(C)C)cc4)ncnc3cc2OC)CC1` it was 23 nM.
The molecule `COc1cc2ncnc(Nc3cccc(Cl)c3F)c2cc1OC1CCN(C(=O)/C=C/CN(C)C)CC1` came in with an IC50 of 76 nM.
Regarding `C=CC(=O)N1CC[C@H](Oc2cc3c(Nc4ccc(Br)cc4F)ncnc3cc2OC)C1`, the IC50 was found to be 15 nM.
The molecule `C=CC(=O)N1CC(Oc2cc3c(Nc4ccc(F)c(Cl)c4F)ncnc3cc2O)C1` returned an IC50 of 381 nM.
`C=CC(=O)N1CCC(Oc2cc3c(Nc4cccc(Cl)c4OC)ncnc3cc2OC)CC1` showed an IC50 of 3 nM. This IC50 lies about 130-fold lower than the previous one.
On to `C=CC(=O)N1CCC(Oc2cc3c(Nc4cccc(CCl)c4)ncnc3cc2OC)CC1`, for which the half-inhibitory concentration (IC50) came to 26 nM. Against the preceding molecule, the IC50 is about 8.7-fold higher.
On to `COc1cc2ncnc(Nc3ccc(Cl)c(Cl)c3F)c2cc1OC1CCN(C(=O)/C=C\Cl)CC1`, for which the 50% inhibitory concentration (IC50) was determined as 14 nM.
With `C=CC(=O)N1CC[C@H](Oc2cc3c(Nc4ccc(OCc5ccccn5)c(Cl)c4)ncnc3cc2OC)C1`, the IC50 worked out at 14 nM.
Regarding `C=CC(=O)N1CC[C@H](Oc2cc3c(Nc4ccc(F)c(Cl)c4F)ncnc3cc2OC)C[C@H]1C(=O)NCCC`, the half-maximal inhibitory concentration (IC50) was found to be 12 nM.
`C=CC(=O)N1CCC(Oc2cc3c(Nc4cccc(S)c4)ncnc3cc2OC)CC1` gave an IC50 of 300 nM.
`C=CC(=O)N1CC[C@H](Oc2cc3c(Nc4ccc(F)c(Cl)c4F)ncnc3cc2OC)C[C@H]1C(=O)OC` had an IC50 of 5 nM.
For `COc1cc2ncnc(Nc3ccc(F)c(Cl)c3F)c2cc1O[C@H]1CCN(C(=O)C#CCN(C)C)C1`, the IC50 is 33 nM.
The molecule `C=CC(=O)N1CC[C@@H](Oc2cc3c(Nc4ccc(F)c(Cl)c4F)ncnc3cc2OC)C1` registered a 50% inhibitory concentration (IC50) of 222 nM. This IC50 is about 6.7-fold higher than that of the molecule before.
For the molecule `C=CC(=O)N1CCC(Oc2cc3c(Nc4cccc(SC)c4)ncnc3cc2OC)CC1`, the half-maximal inhibitory concentration (IC50) worked out at 305 nM.
As for `C=CC(=O)N1CCC(Oc2cc3c(Nc4ccc(F)c(F)c4F)ncnc3cc2OC)CC1`, the concentration for half-maximal inhibition (IC50) was determined as 43 nM. Compared with the last molecule, the IC50 is about 7.1-fold lower.
In the case of `COc1cc2ncnc(Nc3ccc(Cl)c(Cl)c3F)c2cc1OC1CCN(C(=O)/C=C/Cl)CC1` it was 39 nM.
As for `C=CC(=O)N1CCC(Oc2cc3c(Nc4ccc(F)c(Cl)c4F)ncnc3cc2OCCCN2CCOCC2)CC1`, the IC50 was found to be 4 nM. Compared with the last molecule, the IC50 is about 9.8-fold lower.
Take `C=CC(=O)N1CCC(Oc2cc3c(Nc4ccc5c(c4)CCC5)ncnc3cc2OC)CC1`: the IC50 was 29 nM.
In the case of `C=CC(=O)N1CCC(Oc2cc3c(Nc4cccc(C(F)(F)F)c4F)ncnc3cc2OC)CC1`, the IC50 is 11 nM.
In the case of `C=CC(=O)N1CCC(Oc2cc3c(Nc4ccc(C)c(C)c4)ncnc3cc2OC)CC1`, the half-inhibitory concentration (IC50) was found to be 19 nM.
`COc1cc2ncnc(Nc3ccc(F)c(Cl)c3F)c2cc1O[C@H]1CCN(C(=O)/C=C/CN2CCCC2)C1` showed an IC50 of 8 nM.
In the case of `C=CC(=O)N1CCC(Oc2cc3c(Nc4cccc(C(F)(F)F)c4)ncnc3cc2OC)CC1`, the concentration for half-maximal inhibition (IC50) was 58 nM.
As for `C=CC(=O)N1CC[C@@H](Oc2cc3c(Nc4ccc(F)c(Cl)c4F)ncnc3cc2OC)C[C@@H]1C(=O)NO`, the IC50 worked out at 1.7 nM.
On to `C=CC(=O)N1CCC(Oc2cc3c(Nc4ccc(O)c(F)c4)ncnc3cc2OC)CC1`, for which the IC50 worked out at 129 nM.
For `C=CC(=O)N1CCC(Oc2cc3c(Nc4ccccc4Cl)ncnc3cc2OC)CC1`, the IC50 worked out at 65 nM.
Consider `C/C=C/C(=O)N1CC[C@H](Oc2cc3c(Nc4ccc(F)c(Cl)c4F)ncnc3cc2OC)C1`, for which the concentration for half-maximal inhibition (IC50) stood at 85 nM.
With `C=CC(=O)N1CC[C@@H](Oc2cc3c(Nc4ccc(Br)cc4F)ncnc3cc2OC)C[C@@H]1C(N)=O`, the IC50 stood at 1.1 nM. Against the preceding molecule, the IC50 is about 77-fold lower.
Under `COc1cc2ncnc(Nc3ccc(F)c(Cl)c3F)c2cc1OC1CCN(C(=O)C=C(C)C)CC1` stands 38 nM.
`COc1cc2ncnc(Nc3ccc(F)c(Cl)c3F)c2cc1OCCNC(=O)/C=C/CN(C)C`: the IC50 stood at 18 nM.
With `C=CC(=O)N1CC[C@H](Oc2cc3c(Nc4ccc(F)c(Cl)c4F)ncnc3cc2OC)C[C@H]1C(=O)NCCN1CCOCC1`, the 50% inhibitory concentration (IC50) is 8.3 nM.
Consider `C=CC(=O)N1CCC(Oc2cc3c(Nc4ccc(Cl)cc4)ncnc3cc2OC)CC1`, for which the 50% inhibitory concentration (IC50) amounted to 4.6 nM.
For the molecule `CC#CC(=O)N1CCC(Oc2cc3c(Nc4ccc(F)c(Cl)c4F)ncnc3cc2OC)CC1`, the IC50 amounted to 190 nM.
The molecule `C=CC(=O)N1CC[C@H](Oc2cc3c(Nc4ccc(F)c(Cl)c4F)ncnc3cc2OC)C[C@H]1C(=O)NC(C)C` came in with an IC50 of 7.5 nM.
`C=CC(=O)N1CCC(Oc2cc3c(Nc4cccc(N(C)C)c4)ncnc3cc2OC)CC1` yielded a 50% inhibitory concentration (IC50) of 142 nM. Against the preceding molecule, the IC50 is about 19-fold higher.
Under `C=C(CN1CCOCC1)C(=O)N1CCC(Oc2cc3c(Nc4ccc(F)c(Cl)c4F)ncnc3cc2OC)CC1` stands 10 nM; under `C=CC(=O)N1CCC(Oc2cc3c(N[C@H](C)c4ccccc4)ncnc3cc2OC)CC1`, 514 nM.
With `C=CC(=O)N1CC[C@@H](Oc2cc3c(Nc4ccc(F)c(Cl)c4F)ncnc3cc2OC)C[C@@H]1C(=O)O`, the IC50 amounted to 979 nM.
As for `COc1cc2ncnc(Nc3ccc(Cl)c(Cl)c3F)c2cc1OC1CCN(C(=O)/C=C\C(=O)O)CC1`, the 50% inhibitory concentration (IC50) was determined as 322 nM.
Molecule `C=CC(=O)N1CCC(Oc2cc3c(Nc4ccc(F)c(C#N)c4)ncnc3cc2OC)CC1` yielded an IC50 of 8 nM.
Turning to `C=CC(=O)N1CC[C@H](Oc2cc3c(Nc4ccc5c(cnn5Cc5cccc(F)c5)c4)ncnc3cc2OC)C1`, the IC50 was found to be 19 nM.
`C=C(NC(C)=O)C(=O)N1CCC(Oc2cc3c(Nc4ccc(Cl)c(Cl)c4F)ncnc3cc2OC)CC1` came in with an IC50 of 50 nM.
For `C=CC(=O)N1CCC(Oc2cc3c(Nc4ccc(O)cc4Cl)ncnc3cc2OC)CC1`, the IC50 worked out at 176 nM.
Take `C=CC(=O)N1CC[C@H](Oc2cc3c(Nc4cccc(Cl)c4F)ncnc3cc2OC)C1`: the IC50 came to 531 nM.
`C=CC(=O)N1CC[C@@H](Oc2cc3c(Nc4ccc(F)c(Cl)c4F)ncnc3cc2OC)C[C@@H]1C(=O)NCCS(C)(=O)=O` registered a concentration for half-maximal inhibition (IC50) of 2.4 nM.
For `COc1cc2ncnc(Nc3ccc(Cl)c(Cl)c3F)c2cc1OC1CCN(C(=O)/C=C/C(=O)O)CC1`, the IC50 stood at 516 nM. This IC50 is about 220-fold higher than that of the molecule before.
Regarding `C=CC(=O)N1CCCC(Oc2cc3c(Nc4ccc(F)c(Cl)c4F)ncnc3cc2OC)C1` (stereo unspecified), the IC50 stood at 6 nM.
The molecule `COc1cc2ncnc(Nc3ccc(F)c(Cl)c3F)c2cc1OC1CN(C(=O)/C=C/CN(C)C)C1` came in with a 50% inhibitory concentration (IC50) of 36 nM. Against the preceding molecule, the IC50 is about 6-fold higher.
Molecule `C=CC(=O)N1CC[C@H](Oc2cc3c(Nc4ccc(F)c(Cl)c4F)ncnc3cc2OC)C[C@H]1C(=O)NC` had an IC50 of 2.2 nM.
For the molecule `C=CC(=O)N1CC[C@H](Oc2cc3c(Nc4ccc(F)c(Cl)c4F)ncnc3cc2OC)C[C@H]1C(=O)NO`, the IC50 is 10 nM.
The molecule `C=CC(=O)N1CCC(Oc2cc3c(Nc4ccc(F)c(C)c4)ncnc3cc2OC)CC1` displayed a concentration for half-maximal inhibition (IC50) of 8 nM. This IC50 and that of the molecule before are within 1.5-fold of each other.
Regarding `C=CC(=O)N1CCC(Oc2cc3c(Nc4ccc(Cl)cc4O)ncnc3cc2OC)CC1`, the IC50 worked out at 32 nM.
Regarding `COC(=O)/C=C\C(=O)N1CCC(Oc2cc3c(Nc4ccc(F)c(Cl)c4F)ncnc3cc2OC)CC1`, the IC50 is 9 nM.
Turning to `C=CC(=O)N1CCC(Oc2cc3c(Nc4cc(Cl)c(O)c(Cl)c4)ncnc3cc2OC)CC1`, the concentration for half-maximal inhibition (IC50) was 179 nM.
In the case of `CN(C)C/C=C/C(=O)N1CC[C@H](Oc2ccc3ncnc(Nc4ccc(F)c(Cl)c4F)c3c2)C1` it was 25 nM.
`C=C(CN1CCN(C)CC1)C(=O)N1CC(Oc2cc3c(Nc4ccc(F)c(Cl)c4F)ncnc3cc2OC)C1`: the IC50 is 1 nM.
Under `C=CC(=O)N1CC[C@H](Oc2cc3c(Nc4ccc(F)c(Cl)c4F)ncnc3cc2OC)C[C@H]1C(=O)NCC` stands 8 nM; under `C=CC(=O)N1CCC(Oc2cc3c(Nc4cccc(Cl)c4C)ncnc3cc2OC)CC1`, 9 nM; under `COc1cc2ncnc(Nc3cccc(Cl)c3F)c2cc1OC1CN(C(=O)/C=C/CN(C)C)C1`, 9 nM.
In turn, `C#Cc1cccc(Nc2ncnc3cc(OC)c(OC4CCN(C(=O)C=C)CC4)cc23)c1` displayed an IC50 of 52 nM. This IC50 lies about 5.8-fold higher than the previous one.
In the case of `C=CC(=O)N1CC[C@H](Oc2cc3c(Nc4ccc(F)c(Cl)c4F)ncnc3cc2OC)C[C@H]1C(=O)NCCCO` it was 20 nM.
Take `C=CC(=O)N1CCC(Oc2cc3c(Nc4ccc(Cl)c(O)c4)ncnc3cc2OC)CC1`: the IC50 came out at 105 nM.
With `C=CC(=O)N1CCC(Oc2cc3c(NCc4cccc(Cl)c4)ncnc3cc2OC)CC1`, the IC50 was 61 nM.
In the case of `C=CC(=O)N1CC[C@H](Oc2ccc3ncnc(Nc4ccc(OCc5cccc(F)c5)c(Cl)c4)c3c2)C1` it was 15 nM.
